Experimental findings from ChEMBL document CHEMBL1140388, “Privileged structure-based ligands for melanocortin receptors-tetrahydroquinolines, indoles, and aminotetralines” (Bioorg Med Chem Lett, 2005) are described below.

One experiment concerns the target Melanocortin receptor 4 (Homo sapiens, UniProt P32245). Nature of the experiment: Inhibition of [125I]-NDP MSH binding towards human melanocortin 4 receptor.
The target in a further experiment is Melanocortin receptor 5 (Homo sapiens, UniProt P33032). Nature of the experiment: Inhibition of [125I]-NDP MSH binding towards human melanocortin 5 receptor.
Experiment [1] deals with Melanocortin receptor (M3 and M4) (Homo sapiens) (UniProt P32245+P41968). The experiment in a line: Binding selectivity across hMC 4 and hMC 3 by determining the competitive inhibition of [125 I]NDP MSH binding. The format is protein assay.
The target of experiment [2] is Melanocortin receptor (M1 and M4) (Homo sapiens) (UniProt P32245+Q01726). The experiment in a line: Binding selectivity across hMC 4 and hMC 1 by determining the competitive inhibition of [125 I]NDP MSH binding. The format is protein assay.
For experiment [3], the target named is Melanocortin receptor (M4 and M5) (Homo sapiens) (UniProt P32245+P33032). The experiment in a line: Binding selectivity across hMC 4 and hMC 5 by determining the competitive inhibition of [125 I]NDP MSH binding. The format is protein assay.
Experiment [4] has as its target Melanocyte-stimulating hormone receptor (Homo sapiens, UniProt Q01726). The experiment in a line: Inhibition of [125I]-NDP MSH binding towards human melanocortin 1 receptor.
The target of another experiment is Melanocortin receptor 3 (Homo sapiens, UniProt P41968). Nature of the experiment: Inhibition of [125I]-NDP MSH binding towards human melanocortin 3 receptor.
Chain of Melanocortin receptor 3 (P41968 whole entry): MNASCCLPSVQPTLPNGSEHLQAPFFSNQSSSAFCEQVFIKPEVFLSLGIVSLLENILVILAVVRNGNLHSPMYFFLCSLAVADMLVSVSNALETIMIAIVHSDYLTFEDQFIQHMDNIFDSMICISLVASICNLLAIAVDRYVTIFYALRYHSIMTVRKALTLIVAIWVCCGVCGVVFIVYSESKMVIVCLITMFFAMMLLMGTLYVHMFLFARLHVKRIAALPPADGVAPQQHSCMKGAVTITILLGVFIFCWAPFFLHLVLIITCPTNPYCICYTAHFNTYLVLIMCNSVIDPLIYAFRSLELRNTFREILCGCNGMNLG

Chain of Melanocortin receptor 5 (P33032 whole entry): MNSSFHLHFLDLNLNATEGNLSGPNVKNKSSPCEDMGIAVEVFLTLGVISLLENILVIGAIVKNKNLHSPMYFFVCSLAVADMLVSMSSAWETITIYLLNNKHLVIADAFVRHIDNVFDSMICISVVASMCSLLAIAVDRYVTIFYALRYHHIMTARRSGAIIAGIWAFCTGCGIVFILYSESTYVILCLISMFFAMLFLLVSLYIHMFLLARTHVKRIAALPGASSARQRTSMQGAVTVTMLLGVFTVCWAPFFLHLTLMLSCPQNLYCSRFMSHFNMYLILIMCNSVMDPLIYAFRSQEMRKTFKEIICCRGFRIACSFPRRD
Chain of Melanocyte-stimulating hormone receptor (Q01726 whole entry): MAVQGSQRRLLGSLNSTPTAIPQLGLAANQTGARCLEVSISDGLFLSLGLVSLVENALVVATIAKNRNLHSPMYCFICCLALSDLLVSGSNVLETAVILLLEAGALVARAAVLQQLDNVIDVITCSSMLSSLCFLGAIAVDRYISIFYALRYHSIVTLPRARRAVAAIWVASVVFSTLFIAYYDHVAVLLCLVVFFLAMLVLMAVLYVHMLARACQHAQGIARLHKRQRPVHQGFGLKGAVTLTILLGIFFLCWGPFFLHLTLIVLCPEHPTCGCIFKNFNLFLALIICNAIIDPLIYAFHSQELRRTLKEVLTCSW
Chain of Melanocortin receptor 4 (P32245 whole entry): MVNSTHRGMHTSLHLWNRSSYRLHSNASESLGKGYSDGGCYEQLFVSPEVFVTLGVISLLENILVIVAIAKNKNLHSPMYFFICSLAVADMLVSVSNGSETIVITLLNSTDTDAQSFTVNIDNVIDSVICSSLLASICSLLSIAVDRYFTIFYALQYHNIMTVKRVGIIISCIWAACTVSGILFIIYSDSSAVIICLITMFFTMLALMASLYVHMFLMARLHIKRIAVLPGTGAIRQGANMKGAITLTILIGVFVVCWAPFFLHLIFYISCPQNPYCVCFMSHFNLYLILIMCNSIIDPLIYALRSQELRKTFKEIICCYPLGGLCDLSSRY
Chain of Melanocortin receptor (M4 and M5) (Homo sapiens) (P32245 whole entry, looked up): as the sequence (P32245 whole entry) above
Chain of Melanocortin receptor (M4 and M5) (Homo sapiens) (P33032 whole entry, looked up): as the sequence (P33032 whole entry) above

`NC1CCc2cccc(N3CCN(C(=O)[C@@H](Cc4ccc(Cl)cc4)NC(=O)[C@H]4Cc5ccccc5CN4)CC3)c2C1` (stereo partly drawn) returned a Ki on Melanocortin receptor 4 of 240 nM.
Take `CN(C)C1CCc2cccc(N3CCN(C(=O)[C@@H](Cc4ccc(Cl)cc4)NC(=O)[C@H]4Cc5ccccc5CN4)CC3)c2C1` (stereo partly drawn): the Ki is 280 nM at Melanocortin receptor 5, 70 nM on Melanocortin receptor 4, 4000 nM in experiment [4] and 8200 nM on Melanocortin receptor 3. Besides, the Binding selectivity in experiment [1] was determined as 164; in experiment [2] it was 72; in experiment [3] it was 5.6.
On to `O=C(N[C@H](Cc1ccc(Cl)cc1)C(=O)N1CCN(c2cccc3c2NCC3)CC1)[C@H]1Cc2ccccc2CN1`, for which the Ki at Melanocortin receptor 4 came out at 2100 nM.
Consider `CCN(CC)C1CCc2cccc(N3CCN(C(=O)[C@@H](Cc4ccc(Cl)cc4)NC(=O)[C@H]4Cc5ccccc5CN4)CC3)c2C1` (stereo partly drawn), for which, on Melanocortin receptor 4, the Ki was 170 nM.
For `CS(=O)(=O)N1CCc2cccc(N3CCN(C(=O)C(Cc4ccc(Cl)cc4)NC(=O)[C@H]4Cc5ccccc5CN4)CC3)c21` (stereo partly drawn), the affinity at Melanocortin receptor 4 corresponds to a Ki of 900 nM.
With `O=C(N[C@H](Cc1ccc(Cl)cc1)C(=O)N1CCN(c2cccc3c2CN(S(=O)(=O)c2ccccc2)CC3)CC1)[C@H]1Cc2ccccc2CN1`, the Ki at Melanocortin receptor 5 came to 700 nM; at Melanocortin receptor 4, 2500 nM; in experiment [4], 7000 nM; on Melanocortin receptor 3, 1200 nM. In addition, the Binding selectivity in experiment [1] was found to be 4; in experiment [2], 23; in experiment [3], 2.6.
For `CS(=O)(=O)N1CCc2cccc(N3CCN(C(=O)[C@@H](Cc4ccc(Cl)cc4)NC(=O)[C@H]4Cc5ccccc5CN4)CC3)c2C1`, on Melanocortin receptor 4, the affinity corresponds to a Ki of 600 nM. This lies in the sub-micromolar range.
Still for that read-out and setting: for `CC(=O)N1CCc2cccc(N3CCN(C(=O)[C@@H](Cc4ccc(Cl)cc4)NC(=O)[C@H]4Cc5ccccc5CN4)CC3)c2C1` the value was 500 nM.
Same read-out and setting: for `CN(C)[C@H]1CCc2cccc(N3CCN(C(=O)[C@@H](Cc4ccc(Cl)cc4)NC(=O)[C@H]4Cc5ccccc5CN4)CC3)c2C1` the value was 50 nM; for `CCN1CCc2cccc(N3CCN(C(=O)[C@@H](Cc4ccc(Cl)cc4)NC(=O)[C@H]4Cc5ccccc5CN4)CC3)c2C1`, 190 nM; for `CN(C)[C@@H]1CCc2cccc(N3CCN(C(=O)[C@@H](Cc4ccc(Cl)cc4)NC(=O)[C@H]4Cc5ccccc5CN4)CC3)c2C1`, 80 nM.
On the same count and under the same terms, then `CN1CCc2cccc(N3CCN(C(=O)[C@@H](Cc4ccc(Cl)cc4)NC(=O)[C@H]4Cc5ccccc5CN4)CC3)c2C1`, with 280 nM; and `CS(=O)(=O)N1CCc2c(cccc2N2CCN(C(=O)[C@@H](Cc3ccc(Cl)cc3)NC(=O)[C@H]3Cc4ccccc4CN3)CC2)C1`, with 3900 nM; and `CC(=O)NC1CCc2cccc(N3CCN(C(=O)[C@@H](Cc4ccc(Cl)cc4)NC(=O)[C@H]4Cc5ccccc5CN4)CC3)c2C1` (stereo partly drawn), with 410 nM.
For the compound `CN(C1CCc2cccc(N3CCN(C(=O)[C@@H](Cc4ccc(Cl)cc4)NC(=O)[C@H]4Cc5ccccc5CN4)CC3)c2C1)S(C)(=O)=O` (stereo partly drawn), the affinity at Melanocortin receptor 4, expressed as Ki, was 530 nM.
In turn, `CC(C)S(=O)(=O)N1CCc2cccc(N3CCN(C(=O)[C@@H](Cc4ccc(Cl)cc4)NC(=O)[C@H]4Cc5ccccc5CN4)CC3)c2C1` yielded a Ki at Melanocortin receptor 4 of 950 nM.
`O=C(N[C@H](Cc1ccc(Cl)cc1)C(=O)N1CCN(c2cccc3cc[nH]c23)CC1)[C@H]1Cc2ccccc2CN1` displayed a Ki on Melanocortin receptor 4 of 4800 nM.
The same measure, in the same setting: then `CNC1CCc2cccc(N3CCN(C(=O)[C@@H](Cc4ccc(Cl)cc4)NC(=O)[C@H]4Cc5ccccc5CN4)CC3)c2C1` (stereo partly drawn), with 150 nM.
In the case of `O=C(N[C@H](Cc1ccc(Cl)cc1)C(=O)N1CCN(c2cccc3c2CCCC3)CC1)[C@H]1Cc2ccccc2CN1`, the Ki was found to be 260 nM at Melanocortin receptor 5, 4200 nM at Melanocortin receptor 4, 3000 nM in experiment [4] and 1200 nM on Melanocortin receptor 3. Besides, the values for the Binding selectivity in experiment [1], in experiment [2] and in experiment [3] were 181, 47 and 3.8, respectively.
For the compound `CC(=O)N1CCCc2cccc(N3CCN(C(=O)[C@@H](Cc4ccc(Cl)cc4)NC(=O)[C@H]4Cc5ccccc5CN4)CC3)c21`, the Ki was determined as 4000 nM on Melanocortin receptor 5, 7700 nM at Melanocortin receptor 4, 20000 nM in experiment [4] and 500 nM at Melanocortin receptor 3. The Binding selectivity in experiment [1] turned out to be 0.6; in experiment [2], 23; in experiment [3] it was 5.
For `CCCN(CCC)C1CCc2cccc(N3CCN(C(=O)[C@@H](Cc4ccc(Cl)cc4)NC(=O)[C@H]4Cc5ccccc5CN4)CC3)c2C1` (stereo partly drawn), the affinity on Melanocortin receptor 4 corresponds to a Ki of 180 nM.
Still for that read-out and setting: for `CCN1CCc2c(cccc2N2CCN(C(=O)[C@@H](Cc3ccc(Cl)cc3)NC(=O)[C@H]3Cc4ccccc4CN3)CC2)C1` the value was 700 nM.
On the same count and under the same terms, for `CS(=O)(=O)N1CCCc2cccc(N3CCN(C(=O)C(Cc4ccc(Cl)cc4)NC(=O)[C@H]4Cc5ccccc5CN4)CC3)c21` (stereo partly drawn) the value was 900 nM.
The same measure, in the same setting: for `O=C(N[C@H](Cc1ccc(Cl)cc1)C(=O)N1CCN(c2cccc3c2NCCC3)CC1)[C@H]1Cc2ccccc2CN1` the value was 1600 nM.
